Here are results for three molecules from patent US20060229265A1, “Nicotinamide riboside and analogues thereof” (priority 2005, published 2006).

In one data set the test system is Swiss Albino mice. The data set is described as follows: 7 day repeat dose tolerance study in mice. It counts as in vivo. The following applies: 1000, 500 or 300 mg/kg in PBS, IP, 7 consecutive days; male mice. As to the method: Groups of male Swiss Albino mice (6 mice per dosing group) were dosed with either NMN dissolved in phosphate buffered saline (PBS) at 1000 mg/kg, 500 mg/kg, or 300 mg/kg or vehicle control (PBS) via intraperitoneal injection (IP) for 7 consecutive days. The evaluation criteria used to assess toxicity included daily clinical observations and weight gain.

Data set [1] can be described thus: Stability in rat plasma / on extraction with organic solvent (LC/MS). The format is in vitro ADME. As to the method:
Duplicate sets of standard curves of triacetoxy nicotinamide riboside, NMN and nicotinamide riboside in rat plasma were extracted by protein precipitation. Due to sensitivities of compounds to the organic solvent used in extraction, two separate extractions were performed on the standards. The standards were extracted with ACN to obtain triacetoxy nicotinamide riboside and nicotinamide riboside standards, and extracted with MeOH to obtain NMN standards. The standards were analyzed through LC/MS. Due to varying chromatographic properties of the compounds, two separate methods and columns were employed to resolve the compounds. The triacetoxy nicotinamide riboside standards (ACN extraction) were run on an YMC ODS-AQ 2.0×100 mm column, while the NMN standards (MeOH extraction) and nicotinamide riboside standards (ACN extraction) were run on an YMC ODS-AQ 4.5×150 mm column. The resolution procedures were as follows: • 50 uL aliquots of each sample were taken in replicates of four. • Added 200 uL of organic solvent to each sample. • Vortexed samples and centrifuged at 5000 g's for 10 minutes. • Transferred supernatant to new tubes (200 uL), and dried down in Speed-Vac. • Reconstituted samples in 200 uL 95:5 ddH2O:ACN, and vortexed 10 minutes on platform vortexer at setting 10. […] Though the curves may be quantitated separately, they cannot be quantitated together. […]

Data set [2] relates to retinal ganglion cells (RGCs). Kind of data set: Neuroprotection of retinal ganglion cells in EAE mice with acute optic neuritis (intravitreal treatment). The following applies: for RGC numbers (FG-labeled cells in 12 standardized fields per retina): EAE eyes with optic neuritis; for Neuroprotection for RGCs during acute optic neuritis in EAE: dose-dependent manner. As to the method:
Study outline: The neuroprotective effects of nicotinamide riboside were examined in EAE mice with optic neuritis. […] To induce EAE, mice were immunized several days later with 300 μg PLP emulsified in complete Freund's adjuvant (CFA), and control mice (without EAE) were mock-immunized with phosphate buffered saline (PBS) in CFA. All mice received 200 ng intraperitoneal pertussis toxin (PT) on the day of immunization (day 0) and again on day 2.
Eyes were treated with nicotinamide riboside by intravitreal (ivt) injections with a volume of 0.8 μl/injection of a stock solution of either 0.1 M or 0.4 M nicotinamide riboside in PBS (Groups 2, 4 and 5). […] Treament with nicotinamide riboside, as well as PBS control injections, were given ivt on days 0, 4, 7 and 11. Mice were scored daily for clinical EAE, and were sacrificed on day 14 by overdose with ketamine and xylazine.
Retinas were dissected and whole-mounted for fluorescent microscopy. RGC numbers were quantified by counting FG-labeled cells in 12 standardized fields in each retina. Optic nerves were dissected and processed for histology. Cut sections stained by H & E were evaluated for the presence of inflammatory cells to determine acute optic neuritis. RGCs were compared between PBS-treated and nicotinamide riboside-treated eyes with optic neuritis to determine whether nicotinamide riboside prevents loss of neurons.

The structures appear in SMILES notation.

Turning to `NC(=O)c1ccc[n+]([C@@H]2O[C@H](COP(=O)([O-])O)[C@@H](O)[C@H]2O)c1` [NMN, nicotinamide mononucleotide], in the data set with Swiss Albino mice, the “Clinical signs of toxicity” value is on record as “None of the animals showed clinical signs of toxicity” and the “Weight gain by study termination” value was “All animals in the study gained weight”.
For the molecule `CC(=O)OCC1OC([n+]2cccc(C(N)=O)c2)C(OC(C)=O)C1OC(C)=O` (stereo not shown) [Triacetoxy nicotinamide riboside, triacetoxy nicotinamide riboside], the “Hydrolysis on extraction from rat plasma” value in data set [1] (extracted with ACN, compared with MeOH) is given as “less strongly so”; in data set [1] (extracted with MeOH) it was “hydrolyzes into nicotinamide riboside”.
`NC(=O)c1ccc[n+]([C@@H]2O[C@H](CO)[C@@H](O)[C@H]2O)c1` [nicotinamide riboside]: the “RGC numbers (FG-labeled cells in 12 standardized fields per retina)” value in data set [2] (100 mM nicotinamide riboside stock, 0.8 μl ivt on days 0, 4, 7, 11 (estimated ocular 19 mM), day 14, Group 4, PBS-treated 268±59, control 691±81) is 505±36 RGCs; in data set [2] (400 mM nicotinamide riboside stock, 0.8 μl ivt on days 0, 4, 7, 11 (estimated ocular 76 mM), day 14, Group 5, p<0.01), 710±67 RGCs. Besides, the “Incidence of optic neuritis, treated mice vs. controls” value in data set [2] (EAE mice, ivt treatment) was “did not differ”. Also, the “Inflammatory cell infiltration (optic nerve)” value in data set [2] (EAE mice, ivt treatment) is on record as “does not prevent”. In addition, the “Clinical EAE, treated mice vs. controls” value in data set [2] (EAE mice, ivt treatment, scored daily) is “did not differ”. In addition, the “Neuroprotection for RGCs during acute optic neuritis in EAE” value in data set [2] is “effective”; in data set [2] (listed as Nicotinamide riboside), “neuroprotective”. Moreover, in data set [2] (mouse, in vivo), the “Toxicity to RGCs” value is reported as “not toxic”. For the same molecule, the “Difference in RGC numbers between control eyes and non-EAE eyes treated” value in data set [2] (non-EAE eyes, ivt treatment (Group 2) vs. untreated control (Group 1), day 14) is given as “no difference”.
